Reference: patent US20230372498A1, “PLK1 SELECTIVE DEGRADATION INDUCING COMPOUND” (UPPTHERA, priority 2020, published 2023)

Molecular target: T1, PLK1 (Homo sapiens, UniProt P53350)
T1 construct: endogenous in cells; host or cells: HeLa
Assay: PLK1 protein degradation in HeLa cells, Western blotting (PLK1/GAPDH ratio)
Assay type: cell-based
Conditions: 6 hours compound incubation; for DC50: measured only if the grade of Dmax is A or B; for Dmax: thymidine block and release, 10 points three-fold from 3 μM, PLK1 to GAPDH ratio, read-out: Dmax
Procedure, shortened: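 Thymidine-synchronised HeLa cells (2 mM, 24 h) released 4 h into complete medium, then treated 6 h with compound in 10-point 3-fold dilutions from 3 μM. RIPA lysates (15 μg protein) run on SDS-PAGE; PLK1 Western blot normalised to GAPDH.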

T1 sequence (P53350 whole entry): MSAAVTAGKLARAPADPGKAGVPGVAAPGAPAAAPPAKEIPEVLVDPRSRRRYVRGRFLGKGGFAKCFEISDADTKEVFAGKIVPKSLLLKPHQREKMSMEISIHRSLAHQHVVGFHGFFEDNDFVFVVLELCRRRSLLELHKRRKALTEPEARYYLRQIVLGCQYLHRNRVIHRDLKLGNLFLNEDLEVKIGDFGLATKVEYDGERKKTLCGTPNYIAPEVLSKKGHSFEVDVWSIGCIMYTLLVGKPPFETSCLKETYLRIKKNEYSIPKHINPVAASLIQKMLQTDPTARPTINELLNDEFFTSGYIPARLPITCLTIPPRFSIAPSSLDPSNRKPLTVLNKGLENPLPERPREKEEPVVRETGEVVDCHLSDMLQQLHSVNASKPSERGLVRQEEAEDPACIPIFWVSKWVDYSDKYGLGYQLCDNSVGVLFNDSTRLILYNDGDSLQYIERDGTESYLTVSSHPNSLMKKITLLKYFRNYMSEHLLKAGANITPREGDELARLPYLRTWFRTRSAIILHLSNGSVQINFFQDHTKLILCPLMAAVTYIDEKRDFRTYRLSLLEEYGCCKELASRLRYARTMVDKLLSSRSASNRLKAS

Row | Compound | DC50 [nM] | Dmax [%]
1 | COc1cc(C(=O)NC2CCN(CC3CCN(c4cccc5c4C(=O)N(C4CCC(=O)NC4=O)C5=O)CC3)CC2)c(F)cc1Nc1ncc2c(n1)N(C1CCCC1)CC(F)(F)C(=O)N2C (centres unmarked) [Compound 65, 4-((9-cyclopentyl-7,7-difluoro-5-methyl-6-oxo-6,7,8,9-tetrahydro-5H-pyrimido[4,5-b][1,4]diazepin-2-yl)amino)-N-(1-((1-(2-(2,6-dioxopiperidin-3-yl)-1,3-dioxoisoindolin-4-yl)piperidin-4-yl)methyl)piperidin-4-yl)-2-fluoro-5-methoxybenzamide] | ≤ 50 | ≥ 80
2 | COc1cc(C(=O)NC2CCN(CCN3CCN(c4cccc5c4C(=O)N(C4CCC(=O)NC4=O)C5=O)CC3)CC2)c(F)cc1Nc1ncc2c(n1)N(C1CCCC1)CC(F)(F)C(=O)N2C (centres unmarked) [Compound 66, 4-((9-cyclopentyl-7,7-difluoro-5-methyl-6-oxo-6,7,8,9-tetrahydro-5H-pyrimido[4,5-b][1, 4]diazepin-2-yl)amino)-N-(1-(2-(4-(2-(2,6-dioxopiperidin-3-yl)-1,3-dioxoisoindolin-4-yl)piperazin-1-yl)ethyl)piperidin-4-yl)-2-fluoro-5-methoxybenzamide] | ≤ 500 | 60 to 80
3 | COc1cc(C(=O)NC2CCN(CC3CCN(c4ccc5c(c4)C(=O)N(C4CCC(=O)NC4=O)C5=O)CC3)CC2)c(F)cc1Nc1ncc2c(n1)N(C1CCCC1)CC(F)(F)C(=O)N2C (centres unmarked) [Compound 67, 4-((9-cyclopentyl-7,7-difluoro-5-methyl-6-oxo-6,7,8,9-tetrahydro-5H-pyrimido[4,5-b][1,4]diazepin-2-yl)amino)-N-(1-((1-(2-(2,6-dioxopiperidin-3-yl)-1,3-dioxoisoindolin-5-yl)piperidin-4-yl)methyl)piperidin-4-yl)-2-fluoro-5-methoxybenzamide] | ≤ 500 | 60 to 80
4 | COc1cc(C(=O)NC2CCN(C(=O)N3CCN(c4cccc5c4C(=O)N(C4CCC(=O)NC4=O)C5=O)CC3)CC2)c(F)cc1Nc1ncc2c(n1)N(C1CCCC1)CC(F)(F)C(=O)N2C (centres unmarked) [Compound 69, 4-((9-cyclopentyl-7,7-difluoro-5-methyl-6-oxo-6,7,8,9-tetrahydro-5H-pyrimido[4,5-b][1,4]diazepin-2-yl)amino)-N-(1-(4-(2-(2,6-dioxopiperidin-3-yl)-1,3-dioxoisoindolin-4-yl)piperazine-1-carbonyl)piperidin-4-yl)-2-fluoro-5-methoxybenzamide] | ≤ 50 | ≥ 80
5 | COc1cc(C(=O)NC2CCN(CCOCCOCCNc3cccc4c3CN(C3CCC(=O)NC3=O)C4=O)CC2)c(F)cc1Nc1ncc2c(n1)N(C1CCCC1)CC(F)(F)C(=O)N2C (centres unmarked) [Compound 75, 4-((9-cyclopentyl-7,7-difluoro-5-methyl-6-oxo-6,7,8,9-tetrahydro-5H-pyrimido[4,5-b][1,4]diazepin-2-yl)amino)-N-(1-(2-(2-(2-((2-(2,6-dioxopiperidin-3-yl)-1-oxoisoindolin-4-yl)amino)ethoxy)ethoxy)ethyl)piperidin-4-yl)-2-fluoro-5-methoxybenzamide] | ≤ 50 | ≥ 80
6 | COc1cc(C(=O)NC2CCN(CCOCCOCCOCCOCCNc3cccc4c3CN(C3CCC(=O)NC3=O)C4=O)CC2)c(F)cc1Nc1ncc2c(n1)N(C1CCCC1)CC(F)(F)C(=O)N2C (centres unmarked) [Compound 76, 4-((9-cyclopentyl-7,7-difluoro-5-methyl-6-oxo-6,7,8,9-tetrahydro-5H-pyrimido[4,5-b][1,4]diazepin-2-yl)amino)-N-(1-(14-((2-(2,6-dioxopiperidin-3-yl)-1-oxoisoindolin-4-yl)amino)-3,6,9,12-tetraoxatetradecyl)piperidin-4-yl)-2-fluoro-5-methoxybenzamide] | ≤ 500 | 60 to 80
7 | COc1cc(C(=O)NC2CCN(CCCCCCCCNc3cccc4c3CN(C3CCC(=O)NC3=O)C4=O)CC2)c(F)cc1Nc1ncc2c(n1)N(C1CCCC1)CC(F)(F)C(=O)N2C (centres unmarked) [Compound 77, 4-((9-cyclopentyl-7,7-difluoro-5-methyl-6-oxo-6,7,8,9-tetrahydro-5H-pyrimido[4,5-b][1,4]diazepin-2-yl)amino)-N-(1-(8-((2-(2,6-dioxopiperidin-3-yl)-1-oxoisoindolin-4-yl)amino)octyl)piperidin-4-yl)-2-fluoro-5-methoxybenzamide] | ≤ 500 | 60 to 80
8 | COc1cc(C(=O)NC2CCN(CCOCCOCCOCCOCCNc3cccc4nnn(C5CCC(=O)NC5=O)c(=O)c34)CC2)c(F)cc1Nc1ncc2c(n1)N(C1CCCC1)CC(F)(F)C(=O)N2C (centres unmarked) [Compound 78, 4-((9-cyclopentyl-7,7-difluoro-5-methyl-6-oxo-6,7,8,9-tetrahydro-5H-pyrimido[4,5-b][1,4]diazepin-2-yl)amino)-N-(1-(14-((3-(2,6-dioxopiperidin-3-yl)-4-oxo-3,4-dihydrobenzo[d][1,2,3]triazin-5-yl)amino)-3,6,9,12-tetraoxatetradecyl)piperidin-4-yl)-2-fluoro-5-methoxybenzamide] | ≤ 50 | ≥ 80
9 | COc1cc(C(=O)NC2CCN(CCCCCCCCNc3cccc4nnn(C5CCC(=O)NC5=O)c(=O)c34)CC2)c(F)cc1Nc1ncc2c(n1)N(C1CCCC1)CC(F)(F)C(=O)N2C (centres unmarked) [Compound 79, 4-((9-cyclopentyl-7,7-difluoro-5-methyl-6-oxo-6,7,8,9-tetrahydro-5H-pyrimido[4,5-b][1,4]diazepin-2-yl)amino)-N-(1-(8-((3-(2,6-dioxopiperidin-3-yl)-4-oxo-3,4-dihydrobenzo[d][1,2,3]triazin-5-yl)amino)octyl)piperidin-4-yl)-2-fluoro-5-methoxybenzamide] | ≤ 50 | ≥ 80
10 | COc1cc(C(=O)NC2CCN(CCOCCOCC(=O)N[C@H](C(=O)N3C[C@H](O)C[C@H]3C(=O)NCc3ccc(-c4scnc4C)cc3)C(C)(C)C)CC2)c(F)cc1Nc1ncc2c(n1)N(C1CCCC1)CC(F)(F)C(=O)N2C [Compound 80] |  | < 60
11 | COc1cc(C(=O)NC2CCN(CCOCCOCCOCC(=O)N[C@H](C(=O)N3C[C@H](O)C[C@H]3C(=O)NCc3ccc(-c4scnc4C)cc3)C(C)(C)C)CC2)c(F)cc1Nc1ncc2c(n1)N(C1CCCC1)CC(F)(F)C(=O)N2C [Compound 81] |  | < 60

Continued, values first:

Row | DC50 [nM] | Dmax [%] | Compound
12 | ≤ 500 | 60 to 80 | COc1cc(C(=O)NC2CCN(CCN3CCN(c4ccc5c(c4)C(=O)N(C4CCC(=O)NC4=O)C5=O)CC3)CC2)c(F)cc1Nc1ncc2c(n1)N(C1CCCC1)CC(F)(F)C(=O)N2C (centres unmarked) [Compound 68, 4-((9-cyclopentyl-7,7-difluoro-5-methyl-6-oxo-6,7,8,9-tetrahydro-5H-pyrimido[4,5-b][1,4]diazepin-2-yl)amino)-N-(1-(2-(4-(2-(2,6-dioxopiperidin-3-yl)-1,3-dioxoisoindolin-5-yl)piperazin-1-yl)ethyl)piperidin-4-yl)-2-fluoro-5-methoxybenzamide]
13 | ≤ 500 | 60 to 80 | COc1cc(C(=O)NC2CCN(C(=O)CN3CCN(c4cccc5c4C(=O)N(C4CCC(=O)NC4=O)C5=O)CC3)CC2)c(F)cc1Nc1ncc2c(n1)N(C1CCCC1)CC(F)(F)C(=O)N2C (centres unmarked) [Compound 70, 4-((9-cyclopentyl-7,7-difluoro-5-methyl-6-oxo-6,7,8,9-tetrahydro-5H-pyrimido[4,5-b][1,4]diazepin-2-yl)amino)-N-(1-(2-(4-(2-(2,6-dioxopiperidin-3-yl)-1,3-dioxoisoindolin-4-yl)piperazin-1-yl)acetyl)piperidin-4-yl)-2-fluoro-5-methoxybenzamide]
14 | ≤ 50 | ≥ 80 | COc1cc(C(=O)NC2CCN(C(=O)CCN3CCN(c4cccc5c4C(=O)N(C4CCC(=O)NC4=O)C5=O)CC3)CC2)c(F)cc1Nc1ncc2c(n1)N(C1CCCC1)CC(F)(F)C(=O)N2C (centres unmarked) [Compound 71, 4-((9-cyclopentyl-7,7-difluoro-5-methyl-6-oxo-6,7,8,9-tetrahydro-5H-pyrimido[4,5-b][1,4]diazepin-2-yl)amino)-N-(1-(3-(4-(2-(2,6-dioxopiperidin-3-yl)-1,3-dioxoisoindolin-4-yl)piperazin-1-yl)propanoyl)piperidin-4-yl)-2-fluoro-5-methoxybenzamide]
15 | ≤ 500 | 60 to 80 | COc1cc(C(=O)NC2CCN(C(=O)N3CCN(c4ccc5c(c4)C(=O)N(C4CCC(=O)NC4=O)C5=O)CC3)CC2)c(F)cc1Nc1ncc2c(n1)N(C1CCCC1)CC(F)(F)C(=O)N2C (centres unmarked) [Compound 72, 4-((9-cyclopentyl-7,7-difluoro-5-methyl-6-oxo-6,7,8,9-tetrahydro-5H-pyrimido[4,5-b][1,4]diazepin-2-yl)amino)-N-(1-(4-(2-(2,6-dioxopiperidin-3-yl)-1,3-dioxoisoindolin-5-yl)piperazine-1-carbonyl)piperidin-4-yl)-2-fluoro-5-methoxybenzamide]
16 | ≤ 50 | ≥ 80 | COc1cc(C(=O)NC2CCN(C(=O)CN3CCN(c4ccc5c(c4)C(=O)N(C4CCC(=O)NC4=O)C5=O)CC3)CC2)c(F)cc1Nc1ncc2c(n1)N(C1CCCC1)CC(F)(F)C(=O)N2C (centres unmarked) [Compound 73, 4-((9-cyclopentyl-7,7-difluoro-5-methyl-6-oxo-6,7,8,9-tetrahydro-5H-pyrimido[4,5-b][1,4]diazepin-2-yl)amino)-N-(1-(2-(4-(2-(2,6-dioxopiperidin-3-yl)-1,3-dioxoisoindolin-5-yl)piperazin-1-yl)acetyl)piperidin-4-yl)-2-fluoro-5-methoxybenzamide]
17 | ≤ 50 | ≥ 80 | COc1cc(C(=O)NC2CCN(C(=O)CCN3CCN(c4ccc5c(c4)C(=O)N(C4CCC(=O)NC4=O)C5=O)CC3)CC2)c(F)cc1Nc1ncc2c(n1)N(C1CCCC1)CC(F)(F)C(=O)N2C (centres unmarked) [Compound 74, 4-((9-cyclopentyl-7,7-difluoro-5-methyl-6-oxo-6,7,8,9-tetrahydro-5H-pyrimido[4,5-b][1,4]diazepin-2-yl)amino)-N-(1-(3-(4-(2-(2,6-dioxopiperidin-3-yl)-1,3-dioxoisoindolin-5-yl)piperazin-1-yl)propanoyl)piperidin-4-yl)-2-fluoro-5-methoxybenzamide]
